Reference: paper PMC4171606, “A novel copper(I) complex induces ER-stress-mediated apoptosis and sensitizes B-acute lymphoblastic leukemia cells to chemotherapeutic agents” (Oncotarget, 2014)

Assays:
Assay type in all cases: cell-based, human
[1] = system: caspase-9, caspase-3 and -7; assay: Western blot, caspase-9, cleaved caspase-7, caspase-3 and PARP; details: SEM and RS4;11, CP 2.5 μM
Experimental: (§1) FIGURE 2 CP induces caspase-dependent apoptosis without mitochondria involvement (A) Assessment of mitochondrial membrane potential (ΔΨmt) after treatment of RS4;11 and SEM cells with CP (2.5 μM) for the indicated times. Cells were stained with the fluorescent probe JC-1. Data are represented as mean ± S.E.M. of three independent experiments. (B) Flow cytometric analysis of RS4;11 and SEM cells treated with CP (2.5 μM) for 24 h showing cytochrome c labeled with a monoclonal antibody conjugated to FITC. Representative image of three experiments with similar results. (C) Cells were incubated with CP 2.5 μM and 5 μM in the presence or absence of the pan-caspase inhibitor z-VAD.fmk (100 μM). Cell viability was determined after 48 h by MTT assay. Data are represented as mean ± S.E.M. of three independent experiments performed in triplicate. *p<0.01 vs CP alone. (D) Western blot analysis of Bcl-2, cleaved caspase-12, caspase-9, cleaved caspase-7, caspase-3 and PARP after treatment of SEM and RS4;11 cells with CP (2.5 μM) for the indicated times. To confirm equal protein loading, each membrane was stripped and reprobed with anti-β-actin antibody. […]
(§2) Cells were treated with CP and, after different times, were collected, centrifuged and washed with ice cold phosphate-buffered saline (PBS). […] The protein concentration in the supernatant was determined using the BCA protein assay (Pierce, Italy). […]

RS4;11 and SEM cells = assay: Cell cycle distribution by flow cytometry (PI); details: 24 h, different concentrations
Experimental: FIGURE 1 CP uptake and effects on cell cycle and apoptosis induction A) RS4;11, SEM, THP1, Jurkat cell lines and healthy PBMC were incubated with 6.25, 12.5 and 25 μM of CP for 24 h. The intracellular accumulation of CP was detected by GF-AAS analysis. B) SEM and RS4;11 cells were treated with the indicated concentrations of CP for 24 h, cell cycle distribution and Sub-G1 contents were analyzed by flow cytometry after cell staining with PI. The percentages of each phase of the cell cycle (G1, S, G2/M) were calculated on living cells whereas the percentages of cells with hypodiploid DNA content peak (subG1) was referred to cell population characterized by the appearance of subG1 peak. C) SEM and RS4;11 cells were incubated with 2.5 μM CP for the indicated times and analyzed by flow cytometry after double staining with Annexin-V-FITC and PI. Data are represented as mean ± S.E.M. of three independent experiments.
The effects of different concentrations of CP on cell cycle progression were examined in RS4;11 and SEM cells after 24 h of treatment.
5×10^5 RS4;11 and SEM cells in exponential growth were treated with different concentrations of CP for different times. After the incubation, cells were collected, centrifuged and fixed with ice-cold ethanol (70%) and stained with PI as described previously. DNA histograms were analyzed using Multicycle for Windows (Phoenix Flow Systems)

Resting healthy PBMC = assay: MTT growth inhibition, 72 h; details: mean ± SE
caspase-12 = assay: Western blot, cleaved caspase-12
Experimental: as §1, §2

F[P-](F)(F)(F)(F)F.OCP(CO)CO.OCP(CO)CO.OCP(CO)CO.OCP(CO)CO.[Cu+] [CP, [Cu(thp)4][PF6]]
onset of caspase-9 activation and cleavage of caspase-3 and -7 [1]: ≥ 6 h
cell population with hypodiploid DNA content peak (subG1) (RS4;11 and SEM cells): concentration-dependent increase
effect on cell cycle progression (RS4;11 and SEM cells): did not affect cell cycle
GI50 (Resting healthy PBMC): 22.7 ± 2.9 µM
onset of caspase-12 activation (caspase-12; RS4;11, CP 2.5 μM): ≥ 1.5 h
onset of caspase-12 activation (caspase-12; SEM, CP 2.5 μM): ≥ 3 h
